Values after ≈ are worked out from the molar mass of the structure shown. Values joined by “and” are separate entries in the source; they are usually repeats but may differ in a detail not shown here. Equal entries are not always repeated. “Also recorded” adds a separate entry of the source. Where two headings read alike, the source gives them in different places. Marks after values point to notes of the source that are not given here.
Assays:
[1] = test system: bleomycin-induced pulmonary fibrosis in rats; test: Mortality during experiment days 7-28, bleomycin-induced pulmonary fibrosis in rats; type: in vivo, SD rats
Experimental: (§1) Male SD rats, body weight 250-300 g. The animals were anesthetized with 3% seconal, laid flat and fixed onto the operating table. The necks of the animals were disinfected with alcohol and cut to expose tracheae. A needle was inserted via the space between tracheal rings centripetally, and 5 mg/kg of bleomycin was injected. The rats were kept upright and rotated, in order to keep the solution uniformly distributed in the lungs. Then the incisions were sutured.
(§2) After the rats regained consciousness, they were randomly grouped. The animals were divided into (i) a group receiving administration on the next day after establishing the model and (ii) a group receiving administration at 7 days after the model was established. Included were 27, 9, and 3 mg/kg p.o.×28 d asiatic acid groups, 0.6 mg/kg p.o.×28 d dexamethasone group, 36 mg/kg p.o.×28 d asiaticoside group, model group, and blank group. Normal saline was administered for the model and blank groups. On the 28th day after asiatic acid and asiaticoside administration, survival and weight ratio of lungs were measured; pathological examination and serological examination were performed.

[2] = test system: pulmonary fibrosis induced by bleomycin in rats; test: Pathological analysis of lung (HE staining; collagen fiber and elastic fiber dual staining); type: in vivo, SD rats; details: for collagen fiber and elastic fiber staining / lung pathology, HE staining: administration on the next day after establishing model
Experimental: as §1, §2
The lung tissues were fixed in 10% formalin for 1 week. […] The thickness of sections was […]. Routine hematoxylin-eosin (HE) staining was performed. Dual special staining of collagen fibers and elastic fibers were conducted in order to detect the degree of fibrosis. The staining of the two groups of sections was observed and the results were as follows.

Type III collagen = Type III collagen content, bleomycin rat model; type: in vivo, SD rats; details: for Type III collagen content X ± SD: treatment starting on Day 7
Experimental: as §1, §2

[3] = Solubility in water and methanol (saturated solutions, HPLC); type: physicochemical
Experimental: Approximately 5 mg of asiatic acid were transferred into a 25 mL volumetric flask, and 1 mL, of methanol was added and mixed well, until the acid had dissolved in the methanol. The volumetric flask then was brought to volume with mobile phase and mixed well. [table] Saturated solutions obtained from starting material and salt in methanol and water were filtered and diluted accordingly with mobile phase. No dilution was performed for asiatic acid in water. Samples were prepared in triplicate except for the sodium salt prepared in methanol, for which two preparations were done.

[4] = test system: bleomycin-induced pulmonary fibrosis in rats; test: Lung weight index of bleomycin-induced pulmonary fibrosis in rats; type: in vivo, SD rats; details: for lung weight ratio (%): (lung weight/body weight)x100%
Experimental: as §1, §2
Effect of on lung weight index of bleomycin-induced pulmonary fibrosis in rats treated with asiatic acid Body weight and lung weight were measured after the rats were sacrificed. Lung weight ratio=(lung weight/body weight)×100%.

TNF-α = test: Serological test (ELISA kit) of TNF-α in rats of bleomycin-induced pulmonary fibrosis; type: in vivo, SD rats; details: for TNF-α (2nd day) X ± SD / TNF-α (7th day) X ± SD: serum; for TNF-α (2nd day) X ± SD: dosing from 2nd day; for TNF-α (7th day) X ± SD: dosing from 7th day; for serum levels of TNF-α (words): treatment initiated one day or seven days after bleomycin
Experimental: TNF-α Kit, Human 96T ELISA kit imported by Shanghai Jingmei
as §1, §2
(§3) Serum samples were prepared according to a standard protocol (centrifuged 3000 rpm, 10 minutes after collection) and were stored at −20° C. Testing was conducted in accordance with kit instructions.

TFG-β = test: Serological test (ELISA kit) of TFG-β in rats of bleomycin-induced pulmonary fibrosis; type: in vivo, SD rats; details: for TFG-β (2nd day) X ± SD / TFG-β (7th day) X ± SD: serum; for TFG-β (2nd day) X ± SD: dosing from 2nd day; for TFG-β (7th day) X ± SD: dosing from 7th day; for serum levels of TGF-β (words): treatment initiated one day or seven days after bleomycin
Experimental: TFG-β Kit, Human 96T ELISA kit imported by Shanghai Jingmei
as §1, §2, §3

Hydroxyproline = test: Measured value of hydroxyproline in experiment of asiatic acid antagonizing fibrosis; type: in vivo, SD rats; parameters: Measured Value of Hydroxyproline (on 2nd day), single animals / Measured Value of Hydroxyproline (on 2nd day), X / Measured Value of Hydroxyproline (on 7th day), single animals / Measured Value of Hydroxyproline (on 7th day), X: unit not given here; details: for Measured Value of Hydroxyproline (on 2nd day), X / Measured Value of Hydroxyproline (on 7th day), X: group mean; for Measured Value of Hydroxyproline (on 2nd day), single animals / Measured Value of Hydroxyproline (on 7th day), single animals: individual rats 1-10
Experimental: as §1, §2

[5] = asiatic acid high dose (27 mg/kg)
[6] = asiatic acid low dose (3 mg/kg)
[7] = asiatic acid middle dose (9 mg/kg)

SMILES: C[C@H]1[C@H](C)CC[C@]2(C(=O)O)CC[C@]3(C)C(=CC[C@@H]4[C@@]5(C)C[C@@H](O)[C@H](O)[C@@](C)(CO)[C@@H]5CC[C@]43C)[C@H]12 [Asiatic acid, asiatic acid]
- remaining samples at the end of study ([1]; Asiatic acid-H (27 mg/kg p.o. x 28 d), dosing started on 2nd day, 13 on day 7): 13
- number of deaths ([1]; Asiatic acid-H (27 mg/kg p.o. x 28 d), dosing started on 2nd day, days 7-28): 0
- number of deaths ([1]; Asiatic acid-H (27 mg/kg p.o. x 28 d), dosing started on 7th day): 0
- remaining samples at the end of study ([1]; Asiatic acid-H (27 mg/kg p.o. x 28 d), dosing started on 7th day, 13 in the group): 13
- remaining samples at the end of study ([1]; Asiatic acid-L (3 mg/kg p.o. x 28 d), dosing started on 2nd day, 13 on day 7): 11
- number of deaths ([1]; Asiatic acid-L (3 mg/kg p.o. x 28 d), dosing started on 2nd day, days 7-28): 2
- number of deaths ([1]; Asiatic acid-L (3 mg/kg p.o. x 28 d), dosing started on 7th day): 1
- remaining samples at the end of study ([1]; Asiatic acid-L (3 mg/kg p.o. x 28 d), dosing started on 7th day, 13 in the group): 12
- remaining samples at the end of study ([1]; Asiatic acid-M (9 mg/kg p.o. x 28 d), dosing started on 2nd day, 14 on day 7): 13
- number of deaths ([1]; Asiatic acid-M (9 mg/kg p.o. x 28 d), dosing started on 2nd day, days 7-28): 1
- number of deaths ([1]; Asiatic acid-M (9 mg/kg p.o. x 28 d), dosing started on 7th day): 1
- remaining samples at the end of study ([1]; Asiatic acid-M (9 mg/kg p.o. x 28 d), dosing started on 7th day, 13 in the group): 12
- survival / bleomycin-induced death ([1]; rats treated with bleomycin, treatment initiated one day or seven days after bleomycin): largely prevented bleomycin-induced death; also recorded: significantly enhance survival
- collagen fiber and elastic fiber staining [2, 5]: only a little fibroplastic proliferation
- lung pathology, HE staining [2, 5]: mild infiltration of inflammatory cells
- efficacy by pathology compared with asiaticoside group ([2]; asiatic acid high-dose group): better than in the asiaticoside group
- lung pathology, HE staining [2, 6]: mild inflammation and alveolitis
- collagen fiber and elastic fiber staining [2, 7]: significantly milder than that of the model group
- lung pathology, HE staining [2, 7]: mild infiltration of inflammatory cells
- bleomycin-induced lung fibrosis by lung histopathology ([2]; overall statement): effective against bleomycin-induced pulmonary fibrosis, on a dose-response basis; also recorded: reduces the extent of bleomycin-induced lung fibrosis
- lung fibrosis by histopathology compared with dexamethasone ([2]; treatment initiated seven days after bleomycin insult): more effective than dexamethasone
- Type III collagen content X ± SD (Type III collagen; asiatic acid Medium dose (9 mg/kg)): 0.515 ± 0.398
- Type III collagen content X ± SD (Type III collagen; [5]): 0.387 ± 0.287
- Type III collagen content X ± SD (Type III collagen; [6]): 0.764 ± 0.826
- serum levels of type III collagen (Type III collagen; overall statement): significantly decrease bleomycin-induced fibrosis
- Solubility ([3]; MeOH, single preparations (inj 1A-1C), listed as Asiatic acid raw material): 37200 µg/mL and 34870 µg/mL
- solubility in methanol ([3]; methanol): good solubility
- Solubility ([3]; methanol, organic solvent or mixture, thermodynamic from solid, MeOH, single preparations (inj 1A-1C), read-out: Solubility): 27200 µg/mL (≈ 55700 µM)
- Solubility ([3]; water, thermodynamic from solid, water, read-out: Solubility in water): 30 µg/mL (≈ 61.4 µM)
- Solubility ([3]; water, thermodynamic from solid, water, single preparations (inj 1A-1C), read-out: Solubility): 30 µg/mL (≈ 61.4 µM)
- Solubility ([3]; water, single preparations (inj 1A-1C), listed as Asiatic acid raw material): 40 µg/mL and 20 µg/mL
- lung weight ratio (%) ([4]; asiatic acid 3 mg/kg, started 7 day after model established): 0.83** %
- lung weight ratio (%) ([4]; asiatic acid 3 mg/kg, started from the second day): 0.84** %
- lung weight ratio (%) ([4]; asiatic acid 9 mg/kg, started 7 day after model established): 0.82** %
- lung weight ratio (%) ([4]; asiatic acid 9 mg/kg, started from the second day): 0.78** %
- lung weight ratio (%) ([4]; asiatic acid 27 mg/kg, started 7 day after model established): 0.73** %
- lung weight ratio (%) ([4]; asiatic acid 27 mg/kg, started from the second day): 0.69** %
- lung weight (g) X ± SD ([4]; asiatic acid 3 mg/kg, 28-day administration started 7 day after model established): 2.64 ± 0.33 g
- lung weight (g) X ± SD ([4]; asiatic acid 3 mg/kg, 28-day administration started from the second day): 2.74 ± 0.54 g
- lung weight (g) X ± SD ([4]; asiatic acid 9 mg/kg, 28-day administration started 7 day after model established): 2.69 ± 0.53 g
- lung weight (g) X ± SD ([4]; asiatic acid 9 mg/kg, 28-day administration started from the second day): 2.49 ± 0.40 g
- lung weight (g) X ± SD ([4]; asiatic acid 27 mg/kg, 28-day administration started 7 day after model established): 2.52 ± 0.25 g
- lung weight (g) X ± SD ([4]; asiatic acid 27 mg/kg, 28-day administration started from the second day): 2.41 ± 0.38 g
- lung weight to body weight ratio ([4]; starting on 2nd or 7th day, compared with the model group): significantly lower; also recorded: significantly decrease bleomycin-induced lung fibrosis
- TNF-α (2nd day) X ± SD (TNF-α; asiatic acid 3 mg/kg): 0.055 ± 0.008 OD value
- TNF-α (7th day) X ± SD (TNF-α; asiatic acid 3 mg/kg): 0.084 ± 0.018 OD value
- TNF-α (2nd day) X ± SD (TNF-α; asiatic acid 9 mg/kg): 0.056 ± 0.016 OD value
- TNF-α (7th day) X ± SD (TNF-α; asiatic acid 9 mg/kg): 0.096 ± 0.036 OD value
- TNF-α (2nd day) X ± SD (TNF-α; asiatic acid 27 mg/kg): 0.050 ± 0.007 OD value
- TNF-α (7th day) X ± SD (TNF-α; asiatic acid 27 mg/kg): 0.047 ± 0.013 OD value
- serum levels of TNF-α (words) (TNF-α): significantly reduces
- serum levels of TNF-α (words) (TNF-α; listed as asiatic acid): can lower
- TFG-β (2nd day) X ± SD (TFG-β; asiatic acid 3 mg/kg): 0.726 ± 0.220 OD value
- TFG-β (7th day) X ± SD (TFG-β; asiatic acid 3 mg/kg): 1.494 ± 0.273 OD value
- TFG-β (2nd day) X ± SD (TFG-β; asiatic acid 9 mg/kg): 0.642 ± 0.139 OD value
- TFG-β (7th day) X ± SD (TFG-β; asiatic acid 9 mg/kg): 1.165 ± 0.412 OD value
- TFG-β (2nd day) X ± SD (TFG-β; asiatic acid 27 mg/kg): 0.653 ± 0.157 OD value
- TFG-β (7th day) X ± SD (TFG-β; asiatic acid 27 mg/kg): 1.049 ± 0.363 OD value
- serum levels of TGF-β (words) (TFG-β): significantly reduces
- serum levels of TGF-β (words) (TFG-β; listed as asiatic acid): can lower
- Measured Value of Hydroxyproline (on 2nd day), X (Hydroxyproline; asiatic acid 3 mg/kg): 24.31
- Measured Value of Hydroxyproline (on 7th day), X (Hydroxyproline; asiatic acid 3 mg/kg): 25.65
- Measured Value of Hydroxyproline (on 2nd day), single animals (Hydroxyproline; asiatic acid 3 mg/kg): 19.57 and 28.21 and 24.03 and 19.66 and 25.61 and 26.55 and 26.34 and 24.09 and 19.07 and 29.99
- Measured Value of Hydroxyproline (on 7th day), single animals (Hydroxyproline; asiatic acid 3 mg/kg): 20.31 and 27.14 and 28.27 and 26.14 and 28.01 and 29.34 and 25.07 and 25.36 and 25.47 and 21.37
- Measured Value of Hydroxyproline (on 2nd day), X (Hydroxyproline; asiatic acid 9 mg/kg): 22.94
- Measured Value of Hydroxyproline (on 7th day), X (Hydroxyproline; asiatic acid 9 mg/kg): 25.21
- Measured Value of Hydroxyproline (on 2nd day), single animals (Hydroxyproline; asiatic acid 9 mg/kg): 28.26 and 15.05 and 29.14 and 28.98 and 27.69 and 19.03 and 19.46 and 18.22 and 24.01 and 19.56
- Measured Value of Hydroxyproline (on 7th day), single animals (Hydroxyproline; asiatic acid 9 mg/kg): 28.19 and 24.39 (2×) and 27.98 and 28.36 and 19.36 and 24.64 and 25.66 and 29.47 and 19.66
- Measured Value of Hydroxyproline (on 2nd day), X (Hydroxyproline; asiatic acid 27 mg/kg): 21.65
- Measured Value of Hydroxyproline (on 7th day), X (Hydroxyproline; asiatic acid 27 mg/kg): 23.40
- Measured Value of Hydroxyproline (on 2nd day), single animals (Hydroxyproline; asiatic acid 27 mg/kg): 17.64 and 25.36 and 25.18 and 24.36 and 20.19 and 18.6 and 19.36 and 20.97 and 27.69 and 17.11
- Measured Value of Hydroxyproline (on 7th day), single animals (Hydroxyproline; asiatic acid 27 mg/kg): 19.68 and 19.47 and 20.14 and 24.36 (2×) and 27.14 and 25.1 and 26.38 and 27.66 and 19.74
- serum levels of hydroxyproline (Hydroxyproline; overall statement): significantly decrease bleomycin-induced fibrosis

Source: patent US8742167B2, “Therapeutic formulations based on asiatic acid and selected salts thereof” (Shanghai Institute of Pharmaceutical Industry, priority 2008, dated 2014)
